# According to PMC9669016, “First-in-human phase Ia study of the PI3Kα inhibitor CYH33 in patients with solid tumors” (Nature Communications, 2022):
# Tested on: patients with advanced solid tumors
# Assay: Phase Ia safety, tolerability, DLT/MTD (TRAEs graded by NCI-CTCAE v4.03)
# Type: in vivo
# Description: This is a phase I clinical study (ClinicalTrials.gov identifier: NCT03544905), including a phase Ia study of oral CYH33 monotherapy in patients with advanced solid tumors, and a phase Ib study of oral CYH33 monotherapy focused on several specific tumors. […] The phase Ia study included dose-escalation stage and dose-expansion stage. […] The secondary outcomes also included evaluation of changes in PD biomarkers in response to CYH33 treatment (including proteomics of blood specimens at baseline and during treatment, immunocyte subpopulation ratios and molecular markers, cell free DNA in peripheral blood, and blood glucose). However, in compliance with the local human genetic resource regulations and procedures, peripheral blood samples were not obtained for PD biomarker analysis, therefore, only fasting blood glucose was obtained and used as a PD biomarker for CYH33 treatment. The exploratory objective was the relationship between the efficacy of CYH33 treatment and tumor biomarker status.
# An accelerated titration design (ATD) and an mTPI-2 design were adopted to guide toxicity monitoring and dose escalation. The target DLT rate was 30%, with the acceptable toxicity probability interval of (0.25, 0.35). For the first two preset doses of 1 mg and 5 mg CYH33 in the ATD phase, if there were no grade ≥2 TRAEs during the DLT observation period, 100% dose escalation was allowed in the subsequent dose group. After entering the mTPI-2 phase, the SMC guidance was followed to determine the dose level, dosing frequency, and number of subjects in the next dose group, based on the previously obtained safety and PK data for that dose group. If necessary, it was permitted to add an additional dose level between two explored dose levels for further investigation.
# During the phase Ia study, the safe and probably effective dose will be delivered to the expansion cohort to further investigate the safety, tolerability and efficacy of this dose level, while the dose escalation study can be continued simultaneously. If necessary, it is permitted to insert a new dose level between two explored dose levels for exploration. The subjects to be enrolled in the expansion cohort are patients with advanced solid tumors with PIK3CA gene mutations. When there are two or more dose groups at dose expansion simultaneously, the allocation ratio of the number of subjects in each dose group should be as close as possible to the ratio of ORR in each dose group. In principle, when the cumulative ORR at a certain dose level is <10%, the number of subjects in this dose group will be determined by the SMC. A total of approximately 60 patients are expected to be enrolled in the whole phase Ia study.
# The secondary endpoints included preliminary efficacy assessments based on ORR, PFS, DoR, DCR, and clinical benefit rate, assessed per RECIST 1.1,PK parameters for CYH33 and its metabolite I27, and changes in PD biomarkers in response to CYH33 treatment.
compound,measurement,setting,value
"COC(=O)Nc1cc(C(F)(F)F)c(-c2nc(N3CCOCC3)c3cc(CN4CCN(S(C)(=O)=O)CC4)cn3n2)cn1 [CYH33, methyl (5-(6-((4-(methylsulfonyl)piperazin-1-yl)methyl)−4-morpholinopyrrolo[2,1-f][1,2,4]triazin-2-yl)−4-(trifluoromethyl)pyridin-2-yl)carbamate]","Blood glucose increased, Grade ≥ 3 TRAE","30 mg QD, n = 12",0 n (%)
same,"Decreased appetite, Grade ≥ 3 TRAE","30 mg QD, n = 12",0 n (%)
same,"Decreased appetite, all-grade TRAE","30 mg QD, n = 12",4 (33.3) n (%)
same,"Diabetic ketosis, Grade ≥ 3 TRAE","30 mg QD, n = 12",1 (8.3) n (%)
same,"Diarrhea, Grade ≥ 3 TRAE","30 mg QD, n = 12",0 n (%)
same,"Diarrhea, all-grade TRAE","30 mg QD, n = 12",2 (16.7) n (%)
same,"Dizziness, Grade ≥ 3 TRAE","30 mg QD, n = 12",0 n (%)
same,"Electrocardiogram QT prolonged, Grade ≥ 3 TRAE","30 mg QD, n = 12",0 n (%)
same,"Face oedema, Grade ≥ 3 TRAE","30 mg QD, n = 12",0 n (%)
same,"Facial edema, all-grade TRAE","30 mg QD, n = 12",4 (33.3) n (%)
same,"Fatigue, Grade ≥ 3 TRAE","30 mg QD, n = 12",0 n (%)
same,"Fatigue, all-grade TRAE","30 mg QD, n = 12",2 (16.7) n (%)
same,"Generalized oedema, Grade ≥ 3 TRAE","30 mg QD, n = 12",1 (8.3) n (%)
same,Grade ≥ 3 TRAEs in all patients,"30 mg QD, n = 12",7 (58.3) n (%)
same,"Hyperglycemia, Grade ≥ 3 TRAE","30 mg QD, n = 12",7 (58.3) n (%)
same,"Hyperglycemia, all-grade TRAE","30 mg QD, n = 12",11 (91.7) n (%)
same,"Hyponatremia, all-grade TRAE","30 mg QD, n = 12",4 (33.3) n (%)
same,"Mouth ulceration, Grade ≥ 3 TRAE","30 mg QD, n = 12",0 n (%)
same,"Nausea, Grade ≥ 3 TRAE","30 mg QD, n = 12",0 n (%)
same,"Nausea, all-grade TRAE","30 mg QD, n = 12",6 (50.0) n (%)
same,"Peripheral edema, Grade ≥ 3 TRAE","30 mg QD, n = 12",0 n (%)
same,"Peripheral edema, all-grade TRAE","30 mg QD, n = 12",4 (33.3) n (%)
same,"Rash, Grade ≥ 3 TRAE","30 mg QD, n = 12",0 n (%)
same,"Rash, all-grade TRAE","30 mg QD, n = 12",2 (16.7) n (%)
same,TRAEs leading to death,"30 mg QD, n = 12",0 n (%)
same,TRAEs leading to dose discontinuation,"30 mg QD, n = 12",1 (8.3) n (%)
same,TRAEs leading to dose interruption,"30 mg QD, n = 12",10 (83.3) n (%)
same,TRAEs leading to dose reduction,"30 mg QD, n = 12",0 n (%)
same,TRAEs occurring in ≥ 10% of patients,"30 mg QD, n = 12",12 (100) n (%)
same,Treatment-related serious adverse events,"30 mg QD, n = 12",1 (8.3) n (%)
same,"Vomiting, all-grade TRAE","30 mg QD, n = 12",3 (25.0) n (%)
same,"Weight loss, all-grade TRAE","30 mg QD, n = 12",4 (33.3) n (%)
same,"White blood cell count decreased, Grade ≥ 3 TRAE","30 mg QD, n = 12",0 n (%)
same,"Blood glucose increased, Grade ≥ 3 TRAE","40 mg QD, n = 24",0 n (%)
same,"Decreased appetite, Grade ≥ 3 TRAE","40 mg QD, n = 24",1 (4.2) n (%)
same,"Decreased appetite, all-grade TRAE","40 mg QD, n = 24",12 (50.0) n (%)
same,"Diabetic ketosis, Grade ≥ 3 TRAE","40 mg QD, n = 24",0 n (%)
same,"Diarrhea, Grade ≥ 3 TRAE","40 mg QD, n = 24",1 (4.2) n (%)
same,"Diarrhea, all-grade TRAE","40 mg QD, n = 24",7 (29.2) n (%)
same,"Dizziness, Grade ≥ 3 TRAE","40 mg QD, n = 24",1 (4.2) n (%)
same,"Electrocardiogram QT prolonged, Grade ≥ 3 TRAE","40 mg QD, n = 24",0 n (%)
same,"Face oedema, Grade ≥ 3 TRAE","40 mg QD, n = 24",1 (4.2) n (%)
same,"Facial edema, all-grade TRAE","40 mg QD, n = 24",4 (16.7) n (%)
same,"Fatigue, Grade ≥ 3 TRAE","40 mg QD, n = 24",1 (4.2) n (%)
same,"Fatigue, all-grade TRAE","40 mg QD, n = 24",6 (25.0) n (%)
same,"Generalized oedema, Grade ≥ 3 TRAE","40 mg QD, n = 24",0 n (%)
same,Grade ≥ 3 TRAEs in all patients,"40 mg QD, n = 24",19 (79.2) n (%)
same,"Hyperglycemia, Grade ≥ 3 TRAE","40 mg QD, n = 24",17 (70.8) n (%)
same,"Hyperglycemia, all-grade TRAE","40 mg QD, n = 24",23 (95.8) n (%)
same,"Hyponatremia, all-grade TRAE","40 mg QD, n = 24",2 (8.3) n (%)
same,"Mouth ulceration, Grade ≥ 3 TRAE","40 mg QD, n = 24",1 (4.2) n (%)
same,"Mouth ulceration, all-grade TRAE","40 mg QD, n = 24",5 (20.8) n (%)
same,"Nausea, Grade ≥ 3 TRAE","40 mg QD, n = 24",0 n (%)
same,"Nausea, all-grade TRAE","40 mg QD, n = 24",9 (37.5) n (%)
same,"Peripheral edema, Grade ≥ 3 TRAE","40 mg QD, n = 24",4 (16.7) n (%)
same,"Peripheral edema, all-grade TRAE","40 mg QD, n = 24",8 (33.3) n (%)
same,"Rash, Grade ≥ 3 TRAE","40 mg QD, n = 24",1 (4.2) n (%)
same,"Rash, all-grade TRAE","40 mg QD, n = 24",6 (25.0) n (%)
same,TRAEs leading to death,"40 mg QD, n = 24",0 n (%)
same,TRAEs leading to dose discontinuation,"40 mg QD, n = 24",2 (8.3) n (%)
same,TRAEs leading to dose interruption,"40 mg QD, n = 24",19 (79.2) n (%)
same,TRAEs leading to dose reduction,"40 mg QD, n = 24",5 (20.8) n (%)
same,TRAEs occurring in ≥ 10% of patients,"40 mg QD, n = 24",23 (95.8) n (%)
same,Treatment-related serious adverse events,"40 mg QD, n = 24",4 (16.7) n (%)
same,"Vomiting, all-grade TRAE","40 mg QD, n = 24",6 (25.0) n (%)
same,"Weight loss, all-grade TRAE","40 mg QD, n = 24",9 (37.5) n (%)
same,"White blood cell count decreased, Grade ≥ 3 TRAE","40 mg QD, n = 24",1 (4.2) n (%)
same,DLT rate,"40 mg dose level, 1 out of 6 DLT evaluable patients",16.7%
same,patients with DLT: grade 3 hyperglycemia,"40 mg, dose-escalation stage (19 patients)",1
same,patients with DLT: grade 3 hyperglycemia and grade 3 nausea,"60 mg, dose-escalation stage (19 patients)",2
same,"Blood glucose increased, Grade ≥ 3 TRAE","1–20 mg QD, n = 10",0 n (%)
same,"Decreased appetite, Grade ≥ 3 TRAE","1–20 mg QD, n = 10",0 n (%)
same,"Decreased appetite, all-grade TRAE","1–20 mg QD, n = 10",3 (30.0) n (%)
same,"Diabetic ketosis, Grade ≥ 3 TRAE","1–20 mg QD, n = 10",0 n (%)
same,"Diarrhea, Grade ≥ 3 TRAE","1–20 mg QD, n = 10",0 n (%)
same,"Diarrhea, all-grade TRAE","1–20 mg QD, n = 10",3 (30.0) n (%)
same,"Dizziness, Grade ≥ 3 TRAE","1–20 mg QD, n = 10",0 n (%)
same,"Electrocardiogram QT prolonged, Grade ≥ 3 TRAE","1–20 mg QD, n = 10",1 (10.0) n (%)
same,"Face oedema, Grade ≥ 3 TRAE","1–20 mg QD, n = 10",0 n (%)
same,"Facial edema, all-grade TRAE","1–20 mg QD, n = 10",0 n (%)
same,"Fatigue, Grade ≥ 3 TRAE","1–20 mg QD, n = 10",0 n (%)
same,"Fatigue, all-grade TRAE","1–20 mg QD, n = 10",1 (10.0) n (%)
